Test results taken from patent US8603975B2, “Cyclic peptide compounds” (priority 2007, dated 2013).
*1 amine or outer side, *2 acyl side, *3 side chain or, on linkers, in order; H or OH if unused. Where a SMILES comes first, the peptide text is derived from it. [ ]: non-standard residue; d: D form. The star is where a group is joined. X1 = C[C@H](COC(=O)N(C)c1ccccn1)C[C@@H](C(=O)[*:2])N(C)[*:1]; X2 = COCCN(CCOC)C(=O)OC[C@@H](C)C[C@@H](C(=O)[*:2])N(C)[*:1]; X4 = C[C@H](COC(=O)N(C)c1cccnc1)C[C@@H](C(=O)[*:2])N(C)[*:1]; X3 = C[C@H](COC(=O)N1CCN(C)CC1)C[C@@H](C(=O)[*:2])N(C)[*:1]; X6 = C[C@H](COC(=O)N1CCOCC1)C[C@@H](C(=O)[*:2])N(C)[*:1]; NMe(dihydroBmt) = CCCC[C@@H](C)[C@@H](O)[C@H](NC)C(=O)O; X7 = C[C@H](COC(=O)[*:3])C[C@@H](C(=O)[*:2])N(C)[*:1]; MeBmt = C/C=C/C[C@@H](C)[C@@H](O)[C@H](NC)C(=O)O; NMeL = CN[C@@H](CC(C)C)C(=O)O; X8 = CN(c1cnn(CCN2CCOCC2)c1)*; NMeV = CN[C@H](C(=O)O)C(C)C; Sar = CNCC(=O)O

molecular target: HCV replicon; type: cell-based, hepatitis C virus; settings: HCV replicon cells, D-MEM with 5% fetal bovine serum, luciferase activity after two more days of cultivation, 50% enzyme activity level to control (DMSO only)
Description: It is thought that the replication mechanism of the subgenomic HCV RNA in these cell lines is extremely similar to the replication of full length HCV RNA genome in hepatic cells infected with HCV.
The inhibitory activity of the test compounds against the replication of HCV replicon was evaluated by quantifying the activity of luciferase, a reporter gene product encoded in the replicon system reported by Yokota et al., EMBO J 4: 602-608 (2003). The enzyme assay was carried out according to the technical manual of the Steady-Glo(trade mark) luciferase assay system (Promega). The replicon assay was carried out with the modified method reported by Lohmann et al., Science 285: 110 (1999). The details are described in the following.
6×10^3 HCV replicon cells in D-MEM medium containing 5% fetal bovine serum were seeded in each well of a 96-well microtiter plate (Corning Inc.). After the cells were incubated at 37° C. for 16 hours in 5% CO2, the test compound was added.
After cultivation for two more days, the culture medium was removed and 25 μl of Glo Lysis buffer was added to each well and incubated for 5 minutes. Allowing lysis to occur, 25 μl of Steady-Glo(trade mark) assay reagent was added to each well. After incubation for 5 minutes, the luminescence was measured with a luminometer, Mithras LB940 (BERTHOLD TECHNOLOGIES GmbH & Co.KG) following the manufacturer's instructions.
The luciferase activities in replicon cells treated at each concentrations of the compound were employed for the calculation of EC50 value of the each compound, which gave the compound concentration indicating 50% enzyme activity level to the control (no drug group, containing only DMSO).

In order of rising “HCV replicon replication inhibitory activity: EC50” value:
1. C/C=C/C[C@@H](C)[C@@H](O)[C@H]1C(=O)N[C@@H]([C@@H](C)O)C(=O)N(C)[C@H](C)C(=O)N(C)[C@@H](CC(C)C)C(=O)N[C@@H](CC(C)C)C(=O)N(C)[C@@H](CC(C)C)C(=O)N[C@@H](C)C(=O)N[C@H](C)C(=O)N(C)[C@@H](C[C@H](C)COC(=O)N(C)CC(F)(F)F)C(=O)N[C@@H](CC(C)C)C(=O)N(C)[C@@H](C(C)C)C(=O)N1C [Ex 145]  0.022 µg/mL
2. C/C=C/C[C@@H](C)[C@@H](O)[C@H]1C(=O)N[C@@H]([C@@H](C)O)C(=O)N(C)[C@H](C)C(=O)N(C)[C@@H](CC(C)C)C(=O)N[C@@H](CC(C)C)C(=O)N(C)[C@@H](CC(C)C)C(=O)N[C@@H](C)C(=O)N[C@H](C)C(=O)N(C)[C@@H](C[C@H](C)COC(=O)N2CCSCC2)C(=O)N[C@@H](CC(C)C)C(=O)N(C)[C@@H](C(C)C)C(=O)N1C [Ex 130]  0.031 µg/mL
3. C/C=C/C[C@@H](C)[C@@H](O)[C@H]1C(=O)N[C@@H]([C@@H](C)O)C(=O)N(C)[C@H](COC)C(=O)N(C)[C@@H](CC(C)C)C(=O)N[C@@H](CC(C)C)C(=O)N(C)[C@@H](CC(C)C)C(=O)N[C@@H](C)C(=O)N[C@H](C)C(=O)N(C)[C@@H](C[C@H](C)COC(=O)N2CC[C@H](OC)C2)C(=O)N[C@@H](CC(C)C)C(=O)N(C)[C@@H](C(C)C)C(=O)N1C [Ex 151]  0.035 µg/mL
4. C/C=C/C[C@@H](C)[C@@H](O)[C@H]1C(=O)N[C@@H]([C@@H](C)O)C(=O)N(C)[C@H](COC)C(=O)N(C)[C@@H](CC(C)C)C(=O)N[C@@H](CC(C)C)C(=O)N(C)[C@@H](CC(C)C)C(=O)N[C@@H](C)C(=O)N[C@H](C)C(=O)N(C)[C@@H](C[C@H](C)COC(=O)N(C)CCOC)C(=O)N[C@@H](CC(C)C)C(=O)N(C)[C@@H](C(C)C)C(=O)N1C [Ex 84]  0.053 µg/mL
5. C/C=C/C[C@@H](C)[C@@H](O)[C@H]1C(=O)N[C@@H]([C@@H](C)O)C(=O)N(C)[C@H](C)C(=O)N(C)[C@@H](CC(C)C)C(=O)N[C@@H](CC(C)C)C(=O)N(C)[C@@H](CC(C)C)C(=O)N[C@@H](C)C(=O)N[C@H](C)C(=O)N(C)[C@@H](C[C@H](C)COC(=O)N2CCC(C)(OCC)CC2)C(=O)N[C@@H](CC(C)C)C(=O)N(C)[C@@H](C(C)C)C(=O)N1C [Ex 124]  0.056 µg/mL
6. CCCC[C@@H](C)[C@@H](O)[C@H]1C(=O)N[C@@H]([C@@H](C)O)C(=O)N(C)CC(=O)N(C)[C@@H](CC(C)C)C(=O)N[C@@H](CC(C)C)C(=O)N(C)[C@@H](CC(C)C)C(=O)N[C@@H](C)C(=O)N[C@H](C)C(=O)N(C)[C@@H](C[C@H](C)COC(=O)N(C)c2ccccn2)C(=O)N[C@@H](CC(C)C)C(=O)N(C)[C@@H](C(C)C)C(=O)N1C [Ex 249] (cyclo([NMe(dihydroBmt)]T[Sar][NMeL]L[NMeL]A[dA][X1]L[NMeV]))  0.07 µg/mL
7. C/C=C/C[C@@H](C)[C@@H](O)[C@H]1C(=O)N[C@@H]([C@@H](C)O)C(=O)N(C)CC(=O)N(C)[C@@H](CC(C)C)C(=O)N[C@@H](CC(C)C)C(=O)N(C)[C@@H](CC(C)C)C(=O)N[C@@H](C)C(=O)N[C@H](C)C(=O)N(C)[C@@H](C[C@H](C)COC(=O)N(C)c2cnn(CCN3CCOCC3)c2)C(=O)N[C@@H](CC(C)C)C(=O)N(C)[C@@H](C(C)C)C(=O)N1C [Ex 36] (cyclo([MeBmt]T[Sar][NMeL]L[NMeL]A[dA][X7](X8)L[NMeV]))  0.09 µg/mL
8. C/C=C/C[C@@H](C)[C@@H](O)[C@H]1C(=O)N[C@@H]([C@@H](C)O)C(=O)N(C)CC(=O)N(C)[C@@H](CC(C)C)C(=O)N[C@@H](CC(C)C)C(=O)N(C)[C@@H](CC(C)C)C(=O)N[C@@H](C)C(=O)N[C@H](C)C(=O)N(C)[C@@H](C[C@H](C)COC(=O)N(C)c2cccnc2)C(=O)N[C@@H](CC(C)C)C(=O)N(C)[C@@H](C(C)C)C(=O)N1C [Ex 39] (cyclo([MeBmt]T[Sar][NMeL]L[NMeL]A[dA][X4]L[NMeV]))  0.12 µg/mL
9. C/C=C/C[C@@H](C)[C@@H](O)[C@H]1C(=O)N[C@@H]([C@@H](C)O)C(=O)N(C)CC(=O)N(C)[C@@H](CC(C)C)C(=O)N[C@@H](CC(C)C)C(=O)N(C)[C@@H](CC(C)C)C(=O)N[C@@H](C)C(=O)N[C@H](C)C(=O)N(C)[C@@H](C[C@H](C)COC(=O)N2CCOCC2)C(=O)N[C@@H](CC(C)C)C(=O)N(C)[C@@H](C(C)C)C(=O)N1C [Ex 1] (cyclo([MeBmt]T[Sar][NMeL]L[NMeL]A[dA][X6]L[NMeV]))  0.15 µg/mL
10. C/C=C/C[C@@H](C)[C@@H](O)[C@H]1C(=O)N[C@@H]([C@@H](C)O)C(=O)N(C)CC(=O)N(C)[C@@H](CC(C)C)C(=O)N[C@@H](CC(C)C)C(=O)N(C)[C@@H](CC(C)C)C(=O)N[C@@H](C)C(=O)N[C@H](C)C(=O)N(C)[C@@H](C[C@H](C)COC(=O)N2CCN(C)CC2)C(=O)N[C@@H](CC(C)C)C(=O)N(C)[C@@H](C(C)C)C(=O)N1C [Ex 8] (cyclo([MeBmt]T[Sar][NMeL]L[NMeL]A[dA][X3]L[NMeV]))  0.16 µg/mL
11. C/C=C/C[C@@H](C)[C@@H](O)[C@H]1C(=O)N[C@@H]([C@@H](C)O)C(=O)N(C)CC(=O)N(C)[C@@H](CC(C)C)C(=O)N[C@@H](CC(C)C)C(=O)N(C)[C@@H](CC(C)C)C(=O)N[C@@H](C)C(=O)N[C@H](C)C(=O)N(C)[C@@H](C[C@H](C)COC(=O)N(CCOC)CCOC)C(=O)N[C@@H](CC(C)C)C(=O)N(C)[C@@H](C(C)C)C(=O)N1C [Ex 10] (cyclo([MeBmt]T[Sar][NMeL]L[NMeL]A[dA][X2]L[NMeV]))  0.18 µg/mL
